Entries after “also recorded” stand apart in the source; their conditions may differ.
Tests used:
[1] = test system: splenocytes or purified CD4+ splenic T cells of C57BL/6 mice; assay: Cell-based assay for testing c-Rel blockers: cytokine expression with anti-CD3 and anti-CD28; design: IL-4 in culture: dose or concentration left out as unconfirmed; conditions: for IL-2 production by T cells (IL-2 release assay, secondary screening): hits of virtual screening
Experimental: (§1) Splenocytes of C57BL/6 mice (n=4) were cultured with or without plate-bound anti-CD3 (1 ug/ml) and soluble anti-CD28 (2 ug/ml), in the presence of various concentrations of R96 as indicated. R96 was dissolved in PBS, and the amount of the PBS added to each culture was identical ([…]). Twenty-four hours later, cytokines in the supernatant were determined by ELISA (A-C). The percentages of dead cells in the culture were determined by flow cytometry following staining cells with annexin-V and propidium iodide (PI)(D).
To design drugs that could disable human c-Rel binding to DNA (therefore blocking the biological activity of c-Rel), chicken c-Rel 3-D model was first humanized by replacing chicken residues with their human counterparts. The model was then minimized using the Insight II software (Accelrys, Inc). The minimized model was used to discover small molecule inhibitors that can interfere with the residues in loops L1 and L2. A small druggable cavity was identified using programs available in Insight II. This structure was designated as the L1 cavity. The L1 cavity is formed by loops L1, L2 and a helix. Residues Arg 21, Cys 26, Glu 27, Lys 110 and Lys 111 form the mouth of the L1 cavity (FIG. 2). A virtual screening approach was used to identify small molecule inhibitors that block DNA binding to the L1 cavity by perturbing these key contact residues as we previously described. From ˜50,000 drug-like molecules of available chemical libraries, about 100 hits were identified. […] These compounds fall into two structural classes, the phenylcarbamates (FIG. 2C) and sulfanyl-methaniminium-based compounds, represented by R13:
To determine whether the c-Rel blockers identified above are effective in regulating inflammatory cell function, splenocytes or purified CD4+ splenic T cells of C57BU6 mice were treated with anti-CD3 and anti-CD28 in the presence of increasing concentrations of the compounds. Cytokine expression was determined by ELISA, flow cytometry or real-time PCR, whereas CD4 expression and cell survival were determined by flow cytometry alone. […]

[2] = test system: C57BL/6 mice immunized to induce EAE; assay: EAE induced with MOG38-50 peptide, prevention and treatment; assay type: in vivo; conditions: for treating ongoing EAE (after onset): i.p. daily after onset, 100 ug/mouse/injection
[3] = test system: spleen cells of B6 mice; assay: Cytokine production by spleen cells treated with anti-CD3 antibody (ELISA); assay type: cell-based
Experimental: FIG. 1. FIG. 1A depicts a graph showing the IL-2 inhibitory effect of R13D (compound III), R13096 (compound CXX), and R13015 (compound VI). FIG. 1B depicts a graph showing the IFN-gamma inhibitory effect of R13D (compound III), R13096 (compound CXX), and R13015 (compound VI).
FIG. 3. Depicts a graph showing Splenocytes that were cultured under various conditions as indicated on the X-axis. Twenty-four hours later, cytokines in the supernatant were determined by ELISA (R13D is compound III, R31C. is compound IV, R32D is compound VII).
To determine whether these inhibitors are effective in suppressing cytokine production by inflammatory cells, spleen cells of B6 mice were treated with anti-CD3 antibody (to activate the inflammatory cells) with or without different concentrations of the compounds. […] As further shown in FIG. 1 IL-2 and IFN-gamma were inhibited by […], and compound VI at concentrations ranging from 5-20 μM.

[4] = test system: splenocytes or CD4+ T cells of C57BL/6 mice; assay: Cell survival / dead cells by flow cytometry (annexin-V and propidium iodide); assay type: cell-based; design: survival of CD4+ T cells or total splenocytes: dose or concentration left out as unconfirmed
Experimental: as §1
To determine whether the c-Rel blockers identified above are effective in regulating inflammatory cell function, splenocytes or purified CD4+ splenic T cells of C57BU6 mice were treated with anti-CD3 and anti-CD28 in the presence of increasing concentrations of the compounds. Cytokine expression was determined by ELISA, flow cytometry or real-time PCR, whereas CD4 expression and cell survival were determined by flow cytometry alone. […] The IC50 of R96 for IL-2 inhibition is […]. […] Because Th1 cytokine IFN-g inhibits the activity of Th2 cells, the increased IL-4 in cultures containing […] R96 could be due to the reduced IFN-g in the culture. […] In fact, c-Rel-deficient mice have reduced but not increased IgG1, IgG3 and IgE production.

[5] = anti-CD3 treated spleen cells, 24 h, FIG. 3
[6] = FIG. 1, concentrations ranging from 5-20 μM

O=C(Nc1ccccc1)OCc1nccn1Cc1ccc(Cl)cc1 [R13]
IL-2 production by T cells (IL-2 release assay, secondary screening) [1]: significantly inhibited
treating ongoing EAE (after onset) [2]: statistically significant; also recorded: significantly ameliorated
preventing EAE (prophylaxis) ([2]; i.p. daily from day 1 to day 13, 100 ug/mouse/injection (100 mg)): statistically significant
Interleukin (IL)-2 production [3, 5]: significantly inhibited
interferon-gamma production [3, 5]: significantly inhibited

Br.N#Cc1ccc(CSC(=N)Nc2ccccc2)cc1 [R96]
survival of CD4+ T cells or total splenocytes ([4]; highest concentration tested): does not significantly affect
percentage of annexin-V+ and PI+ cells (dead cells) ([4]; various concentrations, 24 h): No significant differences
IL-4 in culture ([1]; cultures containing R96): increased
IL-2 production by T cells (IL-2 release assay, secondary screening) [1]: most potent
treating ongoing EAE (after onset) [2]: statistically significant; also recorded: significantly ameliorated
mean disease score ([2]; seven days into the treatment after onset, FIG. 5C, control 1.83±0.16, p<0.001): 0.75±0.43

CC(C)(C)c1cc(NC(=O)/C(C#N)=C/c2cccc(Cl)c2Cl)c(C(N)=O)s1 [compound V]
IFN-gamma inhibition [3, 6]: inhibited
IL-2 inhibition [3, 6]: inhibited
